Assay results reported in patent US10086039B2, “Lamin A, an activator of longevity/anti-aging SIRT1 protein” (THE UNIVERSITY OF HONG KONG, priority 2012, dated 2018).

Columns and labels:
[1] = system: AMPK; details: cited from earlier work
[2] = target: T1, SIRT1 (Homo sapiens, UniProt Q96EB6); details: cited from earlier work
T1 sequence (Q96EB6 1-747): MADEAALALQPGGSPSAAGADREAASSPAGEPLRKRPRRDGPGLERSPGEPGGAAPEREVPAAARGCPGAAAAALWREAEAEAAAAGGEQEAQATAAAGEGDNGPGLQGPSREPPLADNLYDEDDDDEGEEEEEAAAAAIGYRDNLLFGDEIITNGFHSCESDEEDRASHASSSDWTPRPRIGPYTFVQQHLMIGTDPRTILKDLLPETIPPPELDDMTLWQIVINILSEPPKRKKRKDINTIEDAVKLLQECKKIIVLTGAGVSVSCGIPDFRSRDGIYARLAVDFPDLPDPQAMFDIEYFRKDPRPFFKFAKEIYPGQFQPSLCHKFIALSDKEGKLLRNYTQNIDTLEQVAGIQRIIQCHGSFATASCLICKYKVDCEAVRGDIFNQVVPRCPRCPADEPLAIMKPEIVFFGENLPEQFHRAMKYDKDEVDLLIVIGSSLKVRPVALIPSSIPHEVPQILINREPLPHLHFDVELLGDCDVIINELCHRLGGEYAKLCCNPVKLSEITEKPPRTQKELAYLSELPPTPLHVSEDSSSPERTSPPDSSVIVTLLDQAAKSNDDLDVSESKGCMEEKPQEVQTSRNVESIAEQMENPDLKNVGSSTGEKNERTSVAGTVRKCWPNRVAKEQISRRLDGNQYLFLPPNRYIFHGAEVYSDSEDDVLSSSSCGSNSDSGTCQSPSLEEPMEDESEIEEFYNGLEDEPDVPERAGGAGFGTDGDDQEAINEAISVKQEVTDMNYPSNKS

[3] = system: p16ink4a; test: p16ink4a level in MEFs by Western blotting; type: cell-based, mouse; details: Zmpste24−/− MEFs
Protocol: (§1) Western blotting was performed as described previously (Liu et al., 2005). Relative band intensity was measured by IMAGE J® and normalized to corresponding wild-type or untreated controls as indicated.
As resveratrol enhances SIRT1 deacetylase activity by increasing its binding to lamin A, this Example examines the effects of resveratrol treatment on the early senescence in Zmpste24^−/− MEFs. […] As SIRT1 is more highly expressed in stem cells than in somatic differentiated cells and it is critical for maintaining stem cell self-renewal and function (Han et al., 2008; Lee et al., 2011; Saunders et al., 2010), we then tested effects of resveratrol on BMSCs.

[4] = system: NM-associated SIRT1; test: NM association of SIRT1 in BMSCs (subcellular fractionation, Western blotting); type: cell-based, mouse; details: wild-type and Zmpste24−/− BMSCs, different concentrations, compared to untreated controls
Protocol: Cells were fractionated as described (Mendez and Stillman, 2000). Briefly, the cells were suspended in 100 μl ice-cold buffer A (10 mM HEPES, pH 7.9, 10 mM KCl, 1.5 mM MgCl2, 0.34 M sucrose, 10% glycerol, 1 mM DTT, protease inhibitors). After the addition of 0.1% Triton X-100, the cell suspension was mixed gently, incubated on ice for 5 min and centrifuged at 1300×g at 4° C. for 4 min. The supernatant (S1) was transferred to a new tube and clarified by high-speed centrifugation (12000×g, 10 min, 4° C.). The remaining nuclei pellet (P1) was washed once with 100 μl buffer A and then resuspended in 100 μl buffer A supplemented with 1 mM CaCl2 and 2 units of micrococcal nuclease, and incubated at 37° C. for 15 min. The reaction was stopped by adding 1 mM EGTA and the suspension was then centrifuged at 1300×g at 4° C. for 4 min. The resultant pellet was resuspended in 100 μl of buffer B (3 mM EDTA, 0.2 mM EGTA, 1 mM DTT) and centrifuged at 1700×g at 4° C. for 4 min. […]
Western blotting was performed as described previously (Liu et al., 2005). Relative band intensity was measured by IMAGE J® and normalized to corresponding wild-type or untreated controls as indicated. […]

[5] = system: Zmpste24−/− mice; test: Catalase, acetyl p53 and H3K9ac levels in BMSCs isolated from treated Zmpste24−/− mice; type: in vivo, mouse; details: resveratrol 20 μg/ml in drinking water
Protocol: Zmpste24^−/− mice have been described previously (Pendas et al., 2002). Mouse experimentation was performed in accordance with the guidelines of the Committee on the Use of Live Animals in Teaching and Research (CULATR) at the University of Hong Kong. New-born Zmpste24^−/− mice and wild-type controls were fed with resveratrol (20 μg/ml) or N-acetyl Cysteine (1 mg/ml) in drinking water. The survival of resveratrol-treated, NAC-treated, or vehicle-treated Zmpste24^−/− mice was recorded and their body weight was monitored weekly. The trabecular bone organization and bone mineral density were determined by micro-CT. The survival rate was analyzed by Kaplan-Meier method and statistical comparison was performed by Log-rank (Mantel-Cox) Test.
as §1
Briefly, resveratrol was supplemented at a concentration of 20 μg/ml in drinking water. Four months after treatment, BMSCs were collected for examination and comparison between resveratrol-treated and vehicle-treated Zmpste24^−/− mice.

Oc1ccc(C=Cc2cc(O)cc(O)c2)cc1 [resveratrol]
doses activating AMPK independent of SIRT1 ([1]; high doses): ≥ 50 µM | doses activating AMPK in a SIRT1-dependent manner ([1]; low doses): ≤ 25 µM | SIRT1 activation towards full-length native target proteins, including p53 and PGC-1α ([2]; Beher 2009, Dai 2010, Pacholec 2010): do not confer any SIRT1 activation | SIRT1 activity towards fluorophore-conjugated synthetic peptide (Ac-Arg-His-Lys-LysAc-AMC) rather than the unmodified one ([2]; Borra et al., 2005, Kaeberlein et al.): specifically enhances | elevated levels of p16ink4a [3]: did not reduce | NM-associated SIRT1 [4]: increased | level of acetyl H3K9 in BMSCs [5]: decreased | level of acetyl p53 in BMSCs [5]: decreased | level of catalase in BMSCs [5]: enhanced
